Like-named read-outs stand apart in the source and are kept apart here.
What was measured:
[1] = Stability of tepotinib in QC plasma samples; assay type: in vitro ADME, rat
[2] = previous study, humans; cited from earlier work
[3] = tepotinib 50 mg/kg oral, rat plasma, mean ± SD

stability maintained (long-term stability) ([1]; -80 ℃ refrigerator): 4 weeks | stability maintained over freeze‒thaw cycles ([1]; -80 ℃ to ambient temperature): 3 freeze‒thaw cycles | stability maintained (short-term stability) ([1]; ambient temperature): 3 h | stability maintained in autosampler ([1]; autosampler (10 ℃)): 6 h | CLz/F ([3]; Group A: control (0.5% CMC-Na)): 10.88 ± 1.04 L/h | AUC(0-t) ([3]; male, Sprague-Dawley, rat, in vivo, po, 50 mg/kg, AUC0→t, Group A: control (0.5% CMC-Na)): 4600 ± 458 ng·h/mL | AUC(0-inf) ([3]; male, Sprague-Dawley, rat, in vivo, po, 50 mg/kg, AUC0→∞, Group A: control (0.5% CMC-Na)): 4630 ± 454 ng·h/mL | Cmax ([3]; male, Sprague-Dawley, rat, in vivo, po, 50 mg/kg, Cmax, Group A: control (0.5% CMC-Na)): 180 ± 38.2 ng/mL | MRT last ([3]; male, Sprague-Dawley, rat, in vivo, po, 50 mg/kg, MRT0→t, Group A: control (0.5% CMC-Na)): 18.9 ± 1.21 h | MRT inf ([3]; male, Sprague-Dawley, rat, in vivo, po, 50 mg/kg, MRT0→∞, Group A: control (0.5% CMC-Na)): 19.4 ± 1.36 h | Tmax ([3]; male, Sprague-Dawley, rat, in vivo, po, 50 mg/kg, Tmax, Group A: control (0.5% CMC-Na)): 8.8 ± 3.03 h | half-life ([3]; male, Sprague-Dawley, rat, in vivo, po, 50 mg/kg, t1/2, Group A: control (0.5% CMC-Na)): 9.4 ± 2.35 h
Compound: CN1CCC(COc2cnc(-c3cccc(Cn4nc(-c5cccc(C#N)c5)ccc4=O)c3)nc2)CC1 [tepotinib, Tepotinib]
Tmax [2]: 9 h

— article PMC11536652 (BMC Chemistry, 2024)
